In patent US20050187262A1, “Compositions comprising (S)-amlodipine and an angiotensin receptor blocker and methods of their use” (priority 2004, published 2005):

Tests used:
Assay type in all cases: in vivo, rat
rats [1] = experiment: Phase II: dose-responsive hypotensive effects of the individual agents, ED30/ED50 relative to sodium nitroprusside; conditions: for ED30: dose causing 30% of the maximal drop in blood pressure produced by sodium nitroprusside 30 μg/kg i.v.; for ED50: Rattus norvegicus
Description: (S)-amlodipine malate and seven ARBs (candasartan, eprosartan, irbesartan, losartan, olmesartan, telmisartan and valsartan) were evaluated. The study was conducted in three parts. Phase I evaluated the time-course of the hypotensive actions of all eight agents ([S]-amlodipine and the seven ARBs). In Phase II, the dose-responsive effects of [S]-amlodipine malate and the seven ARBs were evaluated individually. […] In Phase III, the dose response to [S]-amlodipine was evaluated in the presence and absence of the ED30 and ED50dose of each of the seven ARBs, with the objective of comparing the extent to which each ARB, at its ED30 or ED50, shifted the dose-response curve of [S]-amlodipine to the left and thus, lowering the apparent ED50 of the calcium channel blocker.
(§1) The jugular vein and the carotid artery were cannulated with PE-50 tubing for drug administration and recording of cardiovascular parameters, respectively. Blood pressure was recorded from the carotid artery by means of a pressure transducer and heart rate was derived electronically from the blood pressure signal. The signal output derived electronically from the arterial pressure was analyzed with a digital computer. The software IOX-16 continuously recorded the data every 5 sec during the entire procedure for each rat. Raw arterial pressure (in mmHg) and heart rate (beats per min), as well as changes in these two parameters relative to baseline or pre-drug levels (for doses other than initial dose), both in raw units (mm Hg or beats per min [bpm]) and as percentage change from baseline were captured and analyzed. The animals were allowed to equilibrate for 15-20 min before any treatment.
(§2) Doses are expressed in terms of free active substance. Each treatment was administered in a volume of 1 mL/kg by slow (over 20-30 seconds) i.v. bolus for all test articles, in all three phases.
(§3) The data were reported as mean±S.E.M. (standard error of the mean) from 3-5 rats per group. Raw arterial pressure (in mmHg) and heart rate (beats per min), as well as changes in these two parameters relative to baseline or pre-drug levels (for doses other than initial dose), both in raw units (mmHg or beats per min [bpm]) and as percentage change from baseline, were captured and analyzed.

rats [2] = system: rats
Description: (§4) (S)-amlodipine malate and seven ARBs (candasartan, eprosartan, irbesartan, losartan, olmesartan, telmisartan and valsartan) were evaluated. The study was conducted in three parts. Phase I evaluated the time-course of the hypotensive actions of all eight agents ([S]-amlodipine and the seven ARBs). In Phase II, the dose-responsive effects of [S]-amlodipine malate and the seven ARBs were evaluated individually. From this phase of the study, ED30 and ED50 doses of each of the seven ARBs were identified, defined as the dose that produced 30 or 50 percent of the hypotensive effect produced by a rapid i.v. injection (30 μg/kg) of sodium nitroprusside (NTP), a short-acting vasodilator. In Phase III, the dose response to [S]-amlodipine was evaluated in the presence and absence of the ED30 and ED50dose of each of the seven ARBs, with the objective of comparing the extent to which each ARB, at its ED30 or ED50, shifted the dose-response curve of [S]-amlodipine to the left and thus, lowering the apparent ED50 of the calcium channel blocker.
as §1, with “Animals were anesthetized with thiobutabarbital sodium (Inactin®, 150 mg/kg, delivered i.p.), tracheotomized and placed on a thermostatically controlled heating pad (37-38° C.). The jugular” for “The jugular”
as §2, §3

rats [3] = experiment: Phase III: dose response to (S)-amlodipine malate in the absence and presence of an ARB; conditions: for position/shift of the dose response curve of (S)-amlodipine malate plus ARB versus (S)-amlodipine malate alone: ARB given at its ED30, FIGS. 1A and 1B; for ED50: Rattus norvegicus, iv, ARB given at its ED30, read-out: apparent ED50 of (S)-amlodipine malate when combined with the ARB; for Potential Dosage Adjustment (%): extent to which (S)-amlodipine malate could be lowered when co-administered with the ARB
Description: as §4
as §1, with “Animals were anesthetized with thiobutabarbital sodium (Inactin®, 150 mg/kg, delivered i.p.), tracheotomized and placed on a thermostatically controlled heating pad (37-38° C.). The jugular” for “The jugular”
as §2, §3
ED30 and ED50 for each drug were defined as the dose causing a decline in arterial pressure corresponding to 30% and to 50%, respectively, of the maximal drop in blood pressure produced by fast bolus i.v. injection (30 μg/kg) of sodium nitroprusside.
Dose-response curves with (S)-amlodipine malate in the absence and presence of each of the seven ARBs at its ED30 are shown in FIGS. 1A and 1B. The data shown in the figures are from experiments in which ED30 doses of each of the ARBs was combined with (S)-amlodipine malate. These were chosen because ED30 doses were obtainable by direct interpolation of dose response curves from Phase II. For several of the ARBs, doses corresponding to ED50 were obtained from extrapolation of their dose response curves.

[4] = iv, dose causing 50% of the maximal drop in blood pressure produced by sodium nitroprusside 30 μg/kg i.v., read-out: ED50 (estimated)
[5] = iv, hypotensive effect did not reach 50% of the maximum NTP effect, read-out: ED50 (extrapolated from dose response curve)

**Q.** What does the source list for CCOC(=O)C1=C(COCCN)NC(C)=C(C(=O)OC)[C@@H]1c1ccccc1Cl.O=C(O)C[C@H](O)C(=O)O [(S)-amlodipine malate, (S)-Amlodipine-L-Malate]?
**A.** maximum decline in MBP from baseline values (rats [1]; doses 3 to 300 μg/kg i.v.): 49±1%; ED30 (rats [1]; i.v.): 0.056 mg/kg; ED50 (estimated) (rats [1]; i.v., dose causing 50% of the maximal drop in blood pressure produced by sodium nitroprusside 30 μg/kg i.v.): 0.11 mg/kg; HR after injection of each dose (rats [1]; rat, in vivo, iv): gradually and concomitantly increased; time post-injection to maximum/peak hypotensive effect (rats [2]; 100 μg/kg i.v.): 35 to 55 min; maximum effect, decrease in blood pressure (rats [2]; 100 μg/kg i.v., anesthetized rats): 14-17 mmHg; ED50 of (S)-amlodipine malate in the absence of an ARB (rats [3]; i.v., no ARB): 0.092 mg/kg

**Q.** Which “decline in MBP at the next higher dose” value (rats [1]; 300 mg/kg i.v.) does the source give for CCOc1nc2cccc(C(=O)O)c2n1Cc1ccc(-c2ccccc2-c2nnn[nH]2)cc1 [Candasartan, 2-ethoxy-1-[[2′-(1H-tetrazol-5-yl)[1,1′-biphenyl]-4-yl]methyl]-1H-benzimidazole-7-carboxylic acid] here?
**A.** no further decline

**Q.** What about the ED50 (rats [1]; [4]) of the same compound?
**A.** 0.052 mg/kg

**Q.** And the ED30 (rats [1]; i.v.)?
**A.** 0.008 mg/kg

**Q.** And the “maximum decrease in MBP from baseline values” (“maximum decrease in MBP” for short) (rats [1]; reached with 100 μg/kg i.v.)?
**A.** 34±2%

**Q.** What about the “time post-injection to maximum decline of MBP” value (rats [2]; 30 μg/kg i.v.) of the same compound?
**A.** 30 min

**Q.** And the “maximum declines of mean blood pressure (MBP)” value (rats [2]; 30 μg/kg i.v., at 30 min post-injection)?
**A.** about 20 mmHg

**Q.** And the “position/shift of the dose response curve of (S)-amlodipine malate plus ARB versus (S)-amlodipine malate alone” value (from here on “position/shift”) (rats [3])?
**A.** offset

**Q.** With CCCCc1ncc(/C=C(\Cc2cccs2)C(=O)O)n1Cc1ccc(C(=O)O)cc1 [Eprosartan, (E)-α-[[2-butyl-1-[(4-carboxyphenyl)methyl]-1H-imidazol-5-yl]methylene]-2-thiophenepropanoic acid] as the compound, how does the “fall in MBP from baseline values at the next higher dose” value (shortened to “fall in MBP from baseline values”) (rats [1]; 3000 mg/kg i.v.) read?
**A.** 23±2%

**Q.** And the ED50 (rats [1]; [5])?
**A.** ~7 mg/kg

**Q.** What about the ED30 (rats [1]; i.v.) of the same compound?
**A.** 0.104 mg/kg

**Q.** What about the “maximum decrease in MBP” value (rats [1]; reached with 1000 μg/kg i.v.) of the same compound?
**A.** 22±2%

**Q.** And the ED50 (rats [3])?
**A.** 0.07 mg/kg

**Q.** And the “Potential Dosage Adjustment (%)” value (rats [3])?
**A.** 24%

**Q.** With CCCCC1=NC2(CCCC2)C(=O)N1Cc1ccc(-c2ccccc2-c2nnn[nH]2)cc1 [Irbesartan, 2-butyl-3-[[2′-(1H-tetrazol-5-yl)[1,1′-bephenyl]-4-yl]methyl]-1,3-diazaspiro[4,4]non-1-en-4-one] as the compound, how does the ED50 (rats [1]; [4]) read?
**A.** 2.21 mg/kg

**Q.** And the ED30 (rats [1]; i.v.)?
**A.** 0.649 mg/kg

**Q.** And the “maximum decrease in MBP” value (rats [1]; reached with 3,000 μg/kg i.v.)?
**A.** 28±1%

**Q.** And the ED50 (rats [3])?
**A.** 0.071 mg/kg

**Q.** And the “Potential Dosage Adjustment (%)” value (rats [3])?
**A.** 23%

**Q.** CCCCc1nc(Cl)c(CO)n1Cc1ccc(-c2ccccc2-c2nnn[nH]2)cc1 [Losartan, 2-butyl-4-chloro-1-[[2′-(1H-tetrazol-5-yl)[1,1′-biphenyl]-4-yl]methyl]-1H-imidazole-5-methanol] was tested. Which ED50 (rats [1]; [5]) did it give?
**A.** 10 mg/kg

**Q.** And the ED30 (rats [1]; i.v.)?
**A.** 0.625 mg/kg

**Q.** What about the “maximum decrease in MBP” value (rats [1]; reached with 3,000 μg/kg i.v.) of the same compound?
**A.** 23±3%

**Q.** And the ED50 (rats [3])?
**A.** 0.078 mg/kg

**Q.** What about the “Potential Dosage Adjustment (%)” value (rats [3]) of the same compound?
**A.** 15%

**Q.** CCCc1nc2c(C)cc(-c3nc4ccccc4n3C)cc2n1Cc1ccc(-c2ccccc2C(=O)O)cc1 [Telmisartan, 4′-[(1,4′-dimethyl-2′-propyl[2,6′-bi-1H-benzimidazol]-1′-yl)methyl]-[1,1′-biphenyl]-2-carboxylic acid] was tested. Which “fall in MBP from baseline values” value (rats [1]; 1000 mg/kg i.v.) did it give?
**A.** 23±3%

**Q.** And the ED50 (rats [1]; [5])?
**A.** ~2 mg/kg

**Q.** And the ED30 (rats [1]; i.v.)?
**A.** 0.242 mg/kg

**Q.** What about the “maximum decrease in MBP” value (rats [1]; reached with 300 μg/kg i.v.) of the same compound?
**A.** 19±2%

**Q.** And the “position/shift” value (rats [3])?
**A.** offset

**Q.** CCCCC(=O)N(Cc1ccc(-c2ccccc2-c2nnn[nH]2)cc1)[C@H](C(=O)O)C(C)C [Valsartan, N-(1-oxopentyl)-N-[[2′-(1H-tetrazol-5-yl)[1,1′-biphenyl]-4-yl]methyl]-L-valine] was tested. Which “fall in MBP from baseline values” value (rats [1]; 1000 mg/kg i.v.) did it give?
**A.** 19±3%

**Q.** What about the ED50 (rats [1]; [5]) of the same compound?
**A.** ~4 mg/kg

**Q.** And the ED30 (rats [1]; i.v.)?
**A.** 0.229 mg/kg

**Q.** And the “maximum decrease in MBP” value (rats [1]; reached with 300 μg/kg i.v.)?
**A.** 18±3%

**Q.** What about the “position/shift” value (rats [3]) of the same compound?
**A.** greatest leftward shift

**Q.** What about the ED50 (rats [3]) of the same compound?
**A.** 0.063 mg/kg

**Q.** What about the “Potential Dosage Adjustment (%)” value (rats [3]) of the same compound?
**A.** 32%
